# How the values were obtained:
# Mouse ESC = experiment: In vitro dopamine and DOPAC levels by HPLC after KCl; format: cell-based; conditions: 14 days in vitro
# Protocol: Dopamine release and turnover was determined in vitro using reverse phase high performance liquid chromatography (HPLC). Mouse ESC were differentiated in a 12 well plate according to the methodology depicted in FIG. 7(a), in the presence of either the Control peptide of Cripto BP. After 14 days in vitro, media was replaced with 200 ul of N2 media supplemented with 56 mM KCl for 30 min. The media was then collected and stabilized with 20 ul of buffer containing 0.4 M perchloric acid containing 7.9 mM sodium metabisulphate and 1.34 mM disodium EDTA. On the day of analysis the samples were centrifuged and the supernatant transferred to HPLC vials and placed in an autosampler for injection onto the HPLC. The HPLC consisted of a LC-20AT pump (Shimadzu), SIL-20A Autosampler (Shimadzu) and C18 reverse phase column (Bio-Rad, Hercules, USA). Detection was via a 3 mm VT-03 flow cell with glassy carbon working electrode (Antec Leyden) and Decade II Electrochemical Detector (Antec Leyden). The mobile phase consisted of 17% v/v methanol in purified deionized water containing 70 mM KH2PO4, 0.5 mM EDTA and 8.0 mM sulfonic acid, pH 3.0 and was run at a flow rate of 0.5 ml/min. DA turnover was expressed as the concentration of DOPAC to DA [DOPAC/DA]. Analysis was performed on triplicate wells on three independent differentiation experiments.
# Cripto/ALK-4 interaction = molecular target: T1, Cripto/ALK-4 interaction (Mus musculus, UniProt P51865); experiment: ELISA-based competition assay of Cripto/ALK-4 interaction; format: binding
# T1 construct: the displacement of soluble recombinant Cripto from coated ALK-4 by the peptide pools was evaluated
# Protocol: To improve the overall solubility of the resulting mixtures, D-Glutamic (D-Glu), corresponding to building block 4 (Table S1) was initially chosen as the common, N-terminal residue. The total complexity of the library was therefore of 30^2=900 different peptides. In the first step of, the deconvolution process, the peptide pools were tested with a molar excess of 30000-fold (calculated for each single peptide) over Cripto (8.6×10^−10 M; FIG. 2. S1). Once identified an active pool(s), a dose-dependent inhibition using 200-, 500-, 1000-, 5000-, 12500 and 30000 fold excess was performed to confirm the inhibitory property (FIG. 3. S2). The first active pool selected was that labelled as 4-23-X (X indicated random positions), where “23” identified the amino acid L-Cysteine(S-benzyl) [L-Cys(Bzl)] (FIG. 3. S2). […] To finally investigate the N-terminal position, where D-Glu was initially arbitrarily placed, 30 single peptides labelled as B-23-23 were synthesized and submitted to the final screening (FIG. 5. S4 (a)). […]
# The screening was performed by an ELISA (Enzime-Linked Immunosorbent Assay) assay. […] Finally, the plate was developed with o-phenylendiammine peroxidase substrate (Sigma-Aldrich) and the absorbance was read at 490 nm on a microplate reader (Biorad Benchmark). […]
# [1] = 56 mM KCl 30 min, compared to Control peptide
# T1 sequence (P51865 18-156 limits assumed): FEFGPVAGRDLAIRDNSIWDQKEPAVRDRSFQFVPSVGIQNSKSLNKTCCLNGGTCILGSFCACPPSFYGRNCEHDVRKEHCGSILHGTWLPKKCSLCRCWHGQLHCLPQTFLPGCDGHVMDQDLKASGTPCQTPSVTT
smiles,measurement,setting,value
C[S+]([O-])CCC(N)C(=O)N[C@@H](CSCc1ccccc1)C(=O)N[C@@H](CSCc1ccccc1)C(=O)N[C@@H](CCCCNC(=O)[C@H](CSCc1ccccc1)NC(=O)[C@H](CSCc1ccccc1)NC(=O)[C@@H](N)CC[S+](C)[O-])C(=O)N[C@@H](CCCCNC(=O)[C@H](CCCCNC(=O)[C@H](CSCc1ccccc1)NC(=O)[C@H](CSCc1ccccc1)NC(=O)[C@@H](N)CC[S+](C)[O-])NC(=O)[C@H](CSCc1ccccc1)NC(=O)[C@H](CSCc1ccccc1)NC(=O)[C@@H](N)CC[S+](C)[O-])C(=O)NCC(=O)O (some centres unmarked) [Cripto BP],KCl-evoked release of DOPAC,Mouse ESC; [1],significantly increases
same,KCl-evoked release of dopamine,Mouse ESC; [1],significantly increases
same,dopamine turnover (ratio of DOPAC to DA),Mouse ESC,able to utilize DA
same,inhibitory activity in final library screening,"Cripto/ALK-4 interaction; 30 single peptides B-23-23, 500- to 4000-fold excess, confirmed with HPLC purified molecule",optimal inhibitory activity
same,IC50,"Cripto/ALK-4 interaction; estimated, ELISA competition, FIG. 1b, read-out: IC50 for blocking the interaction of Cripto and ALK-4",400 nM
